Tested on: Rett Syndrome mutation R270X
Assay: Read-through activity in cell-free assay (firefly/renilla luciferase reporter, in vitro transcription/translation)
Type: biochemical, rabbit
Details: cell-free dose-response, concentration range 0-12 μM; firefly/renilla expression ratio normalized to WT and non-treated control (FIGS. 6A-B)
Description: The plasmids were transcribed in vitro and translated using rabbit reticulocytes (TNT mix) and then tested for the expression levels of the firefly and renilla luciferases. WT plasmids expressed both firefly and renilla luciferases while mutant plasmids expressed only the renilla luciferase due to the stop codon found in the inserted sequence. The read-through assays were conducted for the tested compounds and the controls by adding the compounds to the in vitro transcription/translation reaction mixture. In case the compounds exerted suppression of the premature nonsense/stop codon mutation, the firefly luciferase was expressed and a fold-change in its expression was observed.
Read-through activity of Rett Syndrome mutation R270X was tested using ELX-02 that was manufactured in Example 1 and 2, and the mutation suppression was calculated based on firefly/renilla expression ratio values, and normalized with respect to the expression level of the WT and the control sample (no tested compound).
FIGS. 6A-B present the results of Rett Syndrome mutation R270X nonsense mutation suppression dose-response cell-free assays conducted for ELX-02 according to embodiments of the present invention, at a concentration rage of 0-12 μM.

C[C@H](N)[C@H]1O[C@@H](OC2C(O)[C@H](N)CC(N)[C@H]2O[C@H]2OC([C@@H](C)O)[C@@H](O)C(O)C2N)C(O)C1O (stereo partly shown) [ELX-02] was tested, and the “read-through of the Rett Syndrome mutation, R270X” value was “dose-dependent increase”.
